Each structure is given as a SMILES string.

One test concerns the target JAK1 (Homo sapiens, UniProt P23458). Nature of the test: JAK kinase activity inhibition, TR-FRET (JAK1). The format is biochemical. The following applies: TR-FRET kinase assay. As for the experimental part: (§1) Experimental objective: The objective of this test is to test the inhibitory effect of the compound on JAK kinase activity.
(§2) Experimental method: the fluorescence resonance energy transfer (TR-FRET) method was used to test the inhibitory effect of the compound on JAK kinase activity, and the half inhibitory concentration IC50 of the compound on JAK kinase activity was obtained.
(§3) Kinase reaction was carried out in a white 384-well plate (PerkinElmer). 1-5 μL of different concentrations of the compound diluted with DMSO and ddH2O was added into each well, and 1-5 μL of the corresponding solvent was added to the positive control wells, followed by addition of 0.1-20 nM JAK kinase solution diluted with 1-5 μL of kinase buffer (HEPES 50-250 mM, MgCl2 5-20 mM, etc.) was added to each well. 1-5 μL of kinase buffer was added to the negative control well. 1-5 μL of substrate mixture containing peptide substrate and ATP was added. The plate was incubated at room temperature for 0.5-5 hours. […], EDTA and detection solution containing labeled antibody was added, and then the plate was incubated at room temperature for another 1-24 hours. The fluorescence signal value at about 620 nm and 665 nm of each well was measured by BioTek Synergy H1 plate reader, and the inhibition rate was calculated by the fluorescence signal value. According to the inhibition rate of different concentrations, the IC50 of the compound was obtained by curve fitting.
(§4) The percentage inhibition data of the wells treated with the compound was calculated with the positive control wells (DMSO control wells) and negative control wells (no kinase added) on the plate {% inhibition rate=100-[(test compound value-negative control value)]/(Positive control value-negative control value)×100}. IC50 value was calculated by using GraphPad prism to fit the data of different concentrations and corresponding percentage inhibition rates to a 4-parameter non-linear logic formula.
For orientation: Time-resolved FRET reads energy transfer from a long-lived donor to a nearby acceptor.

Another test addresses TYK2 (Homo sapiens, UniProt P29597). Nature of the test: JAK kinase activity inhibition, TR-FRET (TYK2). The test is classed as biochemical. The following applies: TR-FRET kinase assay. On the procedure: as §1, §2, §3, §4

Sequence of JAK1 (P23458 whole entry): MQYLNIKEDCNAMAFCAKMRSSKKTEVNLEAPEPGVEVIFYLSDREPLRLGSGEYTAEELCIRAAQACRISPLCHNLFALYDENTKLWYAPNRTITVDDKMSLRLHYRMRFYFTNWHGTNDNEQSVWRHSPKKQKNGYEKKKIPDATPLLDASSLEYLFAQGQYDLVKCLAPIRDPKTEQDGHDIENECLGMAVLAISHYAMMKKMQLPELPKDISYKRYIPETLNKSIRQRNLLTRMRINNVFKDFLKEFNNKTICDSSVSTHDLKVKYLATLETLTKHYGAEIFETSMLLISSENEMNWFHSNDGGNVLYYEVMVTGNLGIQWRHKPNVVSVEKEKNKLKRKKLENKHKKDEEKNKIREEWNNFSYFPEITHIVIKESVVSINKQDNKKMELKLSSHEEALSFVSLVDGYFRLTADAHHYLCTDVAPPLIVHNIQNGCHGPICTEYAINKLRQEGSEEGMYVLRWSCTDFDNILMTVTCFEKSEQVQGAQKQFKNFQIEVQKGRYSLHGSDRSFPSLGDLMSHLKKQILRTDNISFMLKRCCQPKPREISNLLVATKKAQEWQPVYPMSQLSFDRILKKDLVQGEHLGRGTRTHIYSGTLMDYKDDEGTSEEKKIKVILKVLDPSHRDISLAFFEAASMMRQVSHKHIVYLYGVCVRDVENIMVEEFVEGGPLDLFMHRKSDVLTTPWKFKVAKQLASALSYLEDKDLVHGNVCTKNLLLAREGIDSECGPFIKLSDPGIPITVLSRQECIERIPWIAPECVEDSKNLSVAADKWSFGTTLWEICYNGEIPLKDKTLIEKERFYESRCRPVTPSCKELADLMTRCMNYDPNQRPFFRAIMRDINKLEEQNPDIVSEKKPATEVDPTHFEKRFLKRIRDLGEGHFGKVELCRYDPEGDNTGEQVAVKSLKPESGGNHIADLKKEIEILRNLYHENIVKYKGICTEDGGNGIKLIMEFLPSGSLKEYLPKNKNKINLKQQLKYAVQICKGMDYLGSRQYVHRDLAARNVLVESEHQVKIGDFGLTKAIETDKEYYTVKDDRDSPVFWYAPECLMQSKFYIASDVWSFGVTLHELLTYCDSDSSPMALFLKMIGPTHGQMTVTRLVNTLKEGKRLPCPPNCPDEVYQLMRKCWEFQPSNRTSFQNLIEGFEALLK
Sequence of TYK2 (P29597 whole entry): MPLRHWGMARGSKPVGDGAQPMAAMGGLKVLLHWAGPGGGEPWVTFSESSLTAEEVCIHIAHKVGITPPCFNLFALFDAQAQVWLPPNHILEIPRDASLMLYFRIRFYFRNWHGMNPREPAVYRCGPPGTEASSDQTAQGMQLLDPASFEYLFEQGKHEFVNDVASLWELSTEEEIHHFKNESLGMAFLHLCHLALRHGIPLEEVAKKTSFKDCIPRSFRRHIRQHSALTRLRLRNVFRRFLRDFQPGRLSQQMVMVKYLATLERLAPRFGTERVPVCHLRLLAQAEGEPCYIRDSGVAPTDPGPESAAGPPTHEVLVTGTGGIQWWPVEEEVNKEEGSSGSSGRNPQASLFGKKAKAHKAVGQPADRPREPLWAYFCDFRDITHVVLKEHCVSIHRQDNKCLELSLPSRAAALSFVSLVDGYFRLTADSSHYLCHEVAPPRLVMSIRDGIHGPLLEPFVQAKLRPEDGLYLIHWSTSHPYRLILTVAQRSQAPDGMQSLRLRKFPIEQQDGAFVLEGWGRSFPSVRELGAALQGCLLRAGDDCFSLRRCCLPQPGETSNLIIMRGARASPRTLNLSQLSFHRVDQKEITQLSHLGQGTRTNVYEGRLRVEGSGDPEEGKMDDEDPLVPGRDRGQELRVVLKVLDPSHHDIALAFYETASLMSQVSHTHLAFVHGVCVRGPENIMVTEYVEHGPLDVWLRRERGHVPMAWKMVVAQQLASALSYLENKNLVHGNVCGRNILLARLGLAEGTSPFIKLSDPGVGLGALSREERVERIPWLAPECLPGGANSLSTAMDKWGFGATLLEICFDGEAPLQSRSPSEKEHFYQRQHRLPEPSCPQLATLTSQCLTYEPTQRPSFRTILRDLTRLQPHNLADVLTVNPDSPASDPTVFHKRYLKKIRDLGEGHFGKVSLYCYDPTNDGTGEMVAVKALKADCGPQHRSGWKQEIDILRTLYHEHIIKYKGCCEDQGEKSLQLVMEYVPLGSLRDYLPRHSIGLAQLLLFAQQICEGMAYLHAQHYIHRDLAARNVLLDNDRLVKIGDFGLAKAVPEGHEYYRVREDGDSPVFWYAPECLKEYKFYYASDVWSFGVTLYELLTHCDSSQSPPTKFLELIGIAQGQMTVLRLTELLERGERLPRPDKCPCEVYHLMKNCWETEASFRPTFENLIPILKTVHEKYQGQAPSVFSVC

In general, IC50 refers to the concentration that gives 50% inhibition. As for `N#CCCN1[C@@H]2CC[C@H]1C[C@H](Nc1nc(Nc3cc[nH]n3)cc3ncccc13)C2` [Embodiment 6, 3-((3-exo)-3-((7-((1H-pyrazol-3-yl)amino)-1,6-diazanaphthalen-5-yl)amino)-8-azabicyclo[3.2.1]oct-8-yl)propionitrile], the IC50 at JAK1 is 4.03 nM; on TYK2 it was 10.7 nM.
For `Cc1cc(Nc2nc(N[C@@H]3C[C@H]4CC[C@@H](C3)N4CCC#N)c3ccccc3n2)n[nH]1` [Embodiment 87, 3-((3-exo)-3-((2-((5-methyl-1H-pyrazol-3-yl)amino)quinazolin-4-yl)amino)-8-azabicyclo[3.2.1]oct-8-yl)propionitrile], the IC50 at JAK1 is 35.1 nM; at TYK2, over 100 nM.
The matching figures for `Cn1cnc(Nc2cc3ncccc3c(N[C@@H]3C[C@H]4CC[C@@H](C3)N4CCC#N)n2)c1` [Embodiment 25, 3-((3-exo)-3-((7-((1-methyl-1H-imidazol-4-yl)amino)-1,6-diazanaphthalen-5-yl)amino)-8-azabicyclo[3.2.1]oct-8-yl)propionitrile]: 1.63 nM and 4.57 nM.
The matching figures for `Cc1cc(Nc2nc(N[C@@H]3C[C@H]4CC[C@@H](C3)N4CCC#N)nc3cccc(Cl)c23)n[nH]1` [Embodiment 175, 3-((3-exo)-3-((5-chloro-4-((5-methyl-1H-pyrazol-3-yl)amino)quinazolin-2-yl)amino)-8-azabicyclo[3.2.1]oct-8-yl)propionitrile]: over 100 nM and 42.8 nM.
As for `CN(c1nc(Nc2cc(CO)[nH]n2)c2ccc(Cl)cc2n1)[C@@H]1C[C@H]2CC[C@@H](C1)N2CCC#N` [Embodiment 236, 3-((3-exo)-3-((7-chloro-4-((5-(hydroxymethyl)-1H-pyrazol-3-yl)amino)quinazolin-2-yl)(methyl)amino)-8-azabicyclo[3.2.1]oct-8-yl)propionitrile], the half-maximal inhibitory concentration (IC50) at JAK1 stood at 8.81 nM; on TYK2 it was 4.77 nM.
For `Cc1cc(Nc2nc(N[C@@H]3C[C@H]4CC[C@@H](C3)N4C(=O)C(F)F)nc3ccccc23)n[nH]1` [Embodiment 231, 2,2-difluoro-1-((3-exo)-3-((4-((5-methyl-1H-pyrazol-3-yl)amino)quinazolin-2-yl)amino)-8-azabicyclo[3.2.1]oct-8-yl)ethane-1-one] the same measures were 11.3 nM and 3.78 nM.
For `Cc1cc(Nc2cc3ncccc3c(N[C@@H]3C[C@H]4CC[C@@H](C3)N4S(=O)(=O)c3cn[nH]c3)n2)n[nH]1` [Embodiment 315, N5-((3-exo)-8-((1H-pyrazol-4-yl)sulfonyl)-8-azabicyclo[3.2.1]oct-3-yl)-N7-(5-methyl-1H-pyrazol-3-yl)-1,6-diazanaphthalen-5,7-diamine] the same measures were 13.1 nM and over 100 nM.
As for `Cc1cc(Nc2nc(N[C@@H]3C[C@H]4CC[C@@H](C3)N4S(=O)(=O)N3CC(C#N)C3)nc3cc(C4CC4)ccc23)n[nH]1` [Embodiment 216, 1-(((3-exo)-3-((7-cyclopropyl-4-((5-methyl-1H-pyrazol-3-yl)amino)quinazolin-2-yl)amino)-8-azabicyclo[3.2.1]oct-8-yl)sulfonyl)azetindin-3-formonitrile], the IC50 is 0.04 nM on JAK1 and 0.48 nM at TYK2.
The matching figures for `COc1ccc(-c2ccc3c(Nc4cc(C)[nH]n4)nc(N[C@@H]4C[C@H]5CC[C@@H](C4)N5CCC#N)nc3c2)cn1` [Embodiment 183, 3-((3-exo)-3-((7-(6-methoxylpyridin-3-yl)-4-((5-methyl-1H-pyrazol-3-yl)amino)quinazolin-2-yl)amino)-8-azabicyclo[3.2.1]oct-8-yl)propionitrile]: 0.18 nM and 0.1 nM.
`Cc1cc(Nc2nc(N[C@@H]3C[C@H]4CCC[C@@H](C3)N4S(=O)(=O)c3nccn3C)nc3sccc23)n[nH]1` [Embodiment 269]: the IC50 on JAK1 came out at 3.22 nM; on TYK2, 3.08 nM.
For `N#CCCN1[C@@H]2CC[C@H]1C[C@H](Nc1nc(Nc3cc(F)[nH]n3)cc3ncccc13)C2` [Embodiment 9, 3-((3-exo)-3-((7-((5-fluoro-1H-pyrazol-3-yl)amino)-1,6-diazanaphthalen-5-yl)amino)-8-azabicyclo[3.2.1]oct-8-yl)propionitrile] the same measures were 30.6 nM and over 100 nM.
`Cc1cc(Nc2nc(N[C@@H]3C[C@H]4CC[C@@H](C3)N4C(=O)CN(C)C)nc3cc(Cl)ccc23)n[nH]1` [Embodiment 224]: the IC50 at JAK1 was 1.76 nM; on TYK2, over 100 nM.
For `Cc1cc(Nc2cc3nccn3c(N[C@@H]3C[C@H]4CC[C@@H](C3)N4CCC#N)n2)n[nH]1` [Embodiment 79, 3-((3-exo)-3-((7-((5-methyl-1H-pyrazol-3-yl)amino)imidazo[1,2-c]pyrimidin-5-yl)amino)-8-azabicyclo[3.2.1]oct-8-yl)propionitrile] the same measures were 2.95 nM and 5.77 nM.
In the case of `Cc1cc(Nc2nc(NC3CCN(S(=O)(=O)N4CC(C#N)C4)CC3)nc3ccccc23)n[nH]1` [Embodiment 311, 1-((4-((4-((5-methyl-1H-pyrazol-3-yl)amino)quinazolin-2-yl)amino)piperidin-1-yl)sulfonyl)azetindin-3-formonitrile], the IC50 at JAK1 is 7.5 nM; at TYK2, 1.44 nM.
`Cc1cc(Nc2nc(N[C@@H]3C[C@H]4CC[C@@H](C3)N4CCC#N)nc3cc(-n4ccnc4)ccc23)n[nH]1` [Embodiment 203, 3-((3-exo)-3-((7-(1H-imidazol-1-yl)-4-((5-methyl-1H-pyrazol-3-yl)amino)quinazolin-2-yl)amino)-8-azabicyclo[3.2.1]oct-8-yl)propionitrile]: the IC50 was determined as 0.23 nM at JAK1 and 0.19 nM at TYK2.
Turning to `Cc1cc(Nc2nc(N[C@@H]3C[C@H]4CC[C@@H](C3)N4CCC#N)nc3ccc(Cl)cc23)n[nH]1` [Embodiment 178, 3-((3-exo)-3-((6-chloro-4-((5-methyl-1H-pyrazol-3-yl)amino)quinazolin-2-yl)amino)-8-azabicyclo[3.2.1]oct-8-yl)propionitrile], the IC50 at JAK1 is 10.6 nM; at TYK2 it was over 100 nM.
`Cc1cc(Nc2nc(N[C@@H]3C[C@H]4CC[C@@H](C3)N4C(=O)c3ccccn3)nc3ccccc23)n[nH]1` [Embodiment 226, ((3-exo)-3-((4-((5-methyl-1H-pyrazol-3-yl)amino)quinazolin-2-yl)amino)-8-azabicyclo[3.2.1]oct-8-yl)(pyridin-2-yl)methanone]: the IC50 at JAK1 came out at 13.1 nM; at TYK2, 0.3 nM.
For `N#CCCN1[C@@H]2CC[C@H]1C[C@H](Nc1nc(Nc3cc(CO)[nH]n3)cc3ncccc13)C2` [Embodiment 19, 3-((3-exo)-3-((7-((5-(hydroxymethyl)-1H-pyrazol-3-yl)amino)-1,6-diazanaphthalen-5-yl)amino)-8-azabicyclo[3.2.1]oct-8-yl)propionitrile] the same measures were 2.23 nM and 40.7 nM.
Consider `N#CCCN1[C@@H]2CC[C@H]1C[C@H](Nc1nc(Nc3ncc(C#N)s3)cc3ncccc13)C2` [Embodiment 160, 2-((5-(((3-exo)-8-(2-cyanoethyl)-8-azabicyclo[3.2.1]oct-3-yl)amino)-1,6-diazanaphthalen-7-yl)amino)thiazol-5-formonitrile], for which the IC50 at JAK1 worked out at 11.7 nM; on TYK2, 6.15 nM.
`O=C(CN1CCCC1)N1[C@@H]2CCC[C@H]1C[C@H](Nc1nc(Nc3ncc(CO)s3)cc3ncccc13)C2` [Embodiment 164, 1-((3-exo)-3-((7-((5-(hydroxymethyl)thiazol-2-yl)amino)-1,6-diazanaphthalen-5-yl)amino)-9-azabicyclo[3.3.1]non-9-yl)-2-(pyrrolidin-1-yl)ethane-1-one]: the figures for the 50% inhibitory concentration (IC50) on JAK1 and at TYK2 were 0.85 nM and 16.6 nM, respectively.
For `Cc1cc(Nc2nc(N[C@@H]3C[C@H]4CC[C@@H](C3)N4CCC#N)c3cc[nH]c3n2)n[nH]1` [Embodiment 39, 3-((3-exo)-3-((2-((5-methyl-1H-pyrazol-3-yl)amino)-7H-pyrrolo[2,3-d]pyrimidin-4-yl)amino)-8-azabicyclo[3.2.1]oct-8-yl)propionitrile] the same measures were 2.94 nM and 9.49 nM.
The matching figures for `Cc1cc(Nc2nc(N[C@@H]3C[C@H]4CC[C@@H](C3)N4CCC#N)c3cccnc3n2)n[nH]1` [Embodiment 90, 3-((3-exo)-3-((2-((5-methyl-1H-pyrazol-3-yl)amino)pyrido[2,3-d]pyrimidin-4-yl)amino)-8-azabicyclo[3.2.1]oct-8-yl)propionitrile]: 7.23 nM and 21.6 nM.
For `Cc1cc(Nc2nc(N[C@@H]3C[C@H]4CC[C@@H](C3)N4CCC#N)nc3cc(-c4ccccc4)ccc23)n[nH]1` [Embodiment 184, 3-((3-exo)-3-((4-((5-methyl-1H-pyrazol-3-yl)amino)-7-phenylquinazolin-2-yl)amino)-8-azabicyclo[3.2.1]oct-8-yl)propionitrile] the same measures were 0.14 nM and 0.48 nM.
